Results as given in patent publication US20070054353A1, “Nuclear receptor transcriptional corepressor and uses thereof” (priority 2002, published 2007).
Each block holds one molecule with its values, some of them ahead of it. Where a SMILES comes first, the peptide text is derived from it. [ ]: non-standard residue; d: D form. Aoe = N[C@@H](CCCCCC(=O)[C@@H]1CO1)C(=O)O

What was measured:
[1] = target: T1, CtBP1 (Homo sapiens, UniProt Q13363); assay: GST pull-down of in vitro translated CtBP1 with GST-LCoR; format: binding
T1 construct: made in house; host or cells: CtBP1 by in vitro translation
Experimental: GST pull-down assays were performed as described (Eng, F.C.S. et al. (1998) J. Biol. Chem., 273, 28371-7), with the exception that assays performed with in vitro translated ER378 included two more washes made with the GST buffer containing 150 mM NaCl. For immunoprecipitations of tagged proteins, COS-7 cells in 100 mm dishes were transfected with 6 μg of HA-LCOR and/or 6 μg of HA-Flag-HDAC6 or with 6 μg of Flag-LCoR and/or 6 μg of HA-HDAC3 and pSG5 carrier. 48 h after transfection, cells were lysed 30 min at […] in 1 ml of JLB (20 mM Tris-HCl, pH8, 150 mM KCl, 10% glycerol, 0.1% IGEPAL CA-630, and complete protease inhibitor cocktail; Boehringer-Mannheim, Laval, Qc). Cell debris were pelleted by centrifugation (14,000 rpm, 5 min), and proteins immunoprecipitated from 600 μl of supernatant by incubation for 1 h at 4° C. with 4 μg of α-Flag M2 antibody or polyclonal anti-HDAC3, followed by overnight incubation with protein A+G agarose or protein-A agarose beads for anti-Flag, and anti-HDAC3, respectively. Beads were washed (3×) with JLB. Bound immunocomplexes were boiled in Laemmli buffer, separated by 10% SDS/PAGE, and blotted on PVDF membrane with α-Flag M2-peroxidase, α-HDAC3, α-HA-peroxidase (1:500), and detected by enhanced chemiluminescence (NEN Life Science Products, Boston, Mass.). […]

[2] = target: T2, interaction of LCoR and ERα (Homo sapiens, UniProt P03372); assay: BRET assay of LCoR-ERα interaction in living COS-7 cells; format: cell-based; details: 10^−7M ligand, COS-7 cells cotransfected with ERα-EYFP and LCoR-rluc
T2 construct: expressed in transfected cells; host or cells: COS-7
T2 sequence (P03372 1-595): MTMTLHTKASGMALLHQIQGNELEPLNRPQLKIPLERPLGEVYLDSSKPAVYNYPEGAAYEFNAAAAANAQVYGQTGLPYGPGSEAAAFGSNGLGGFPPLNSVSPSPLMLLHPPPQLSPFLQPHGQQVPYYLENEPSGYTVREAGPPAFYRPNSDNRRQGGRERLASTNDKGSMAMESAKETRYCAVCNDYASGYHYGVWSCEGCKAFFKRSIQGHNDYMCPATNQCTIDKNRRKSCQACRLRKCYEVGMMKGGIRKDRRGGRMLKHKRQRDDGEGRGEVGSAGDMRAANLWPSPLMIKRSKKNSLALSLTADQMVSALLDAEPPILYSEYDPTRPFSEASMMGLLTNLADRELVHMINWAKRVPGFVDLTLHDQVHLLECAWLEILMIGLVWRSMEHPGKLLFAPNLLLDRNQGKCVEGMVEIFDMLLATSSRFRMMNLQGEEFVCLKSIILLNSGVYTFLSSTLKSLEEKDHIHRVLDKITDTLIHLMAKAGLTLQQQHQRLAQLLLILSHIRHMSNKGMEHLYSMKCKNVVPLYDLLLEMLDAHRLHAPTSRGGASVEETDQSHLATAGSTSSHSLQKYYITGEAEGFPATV
Experimental: Readings were started immediately after coelenterazine H addition, and 10 repeated measures were taken.
Interaction of ERα and LCoR in vivo was further tested by bioluminescence resonance energy transfer (BRET) in living COS-7 cells transiently cotransfected with plasmids expressing ERα-EYFP and LCoR-rluc fusion proteins. […] BRET ratios were calculated as described in experimental procedures.

[3] = target: T3, ERα LBD (Homo sapiens, UniProt P03372); assay: GST pull-down of in vitro translated LCoR with GST-ERα LBD; format: binding; details: ligand added to 10^−6 M
T3 construct: the ERα LBD fused to GST (GST-ERα-LBD); made in house; LCoR by in vitro translation
T3 sequence (P03372 311-547 limits assumed): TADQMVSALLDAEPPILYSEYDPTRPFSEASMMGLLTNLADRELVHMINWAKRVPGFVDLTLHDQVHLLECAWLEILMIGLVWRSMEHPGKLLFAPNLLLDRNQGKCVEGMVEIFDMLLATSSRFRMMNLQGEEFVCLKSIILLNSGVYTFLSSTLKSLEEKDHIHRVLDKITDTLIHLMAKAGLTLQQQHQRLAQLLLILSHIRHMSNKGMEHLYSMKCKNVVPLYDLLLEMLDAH

[4] = test system: HDAC6; assay: ERα-dependent CAT reporter with LCoR and HDAC6 cotransfection in MCF-7 cells; format: cell-based, human; details: estradiol 10 nM, TSA 500 nM, trapoxin 50 nM
Experimental: All cells were cultured under the recommended conditions. For immunocytochemistry, COS-7 cells grown on collagen IV-treated microscope slides in 6-well plates in DMEM, supplemented with 10% FBS were transfected in medium without serum with 12.5 μl of lipofectamine 2000 (Invitrogen, Burlington, Ont.) containing 1 μg each of pSG5/LCoR and HA-Flag-HDAC6/pcDNA3. Medium was replaced 24 h after transfection and cells were prepared for immunocytochemistry after 48 h as described below. For immunoprecipitation of tagged proteins, MCF-7 cells in 100 mm dishes were transfected with 10 μl of lipofectamine containing 10 μg of pSG5 vectors containing Flag-LCoR, Flag-m1, Flag-m2 or Flag-m1+2. For analysis of the effects of HDACs 3 or 6 on LCoR corepression, COS-7 cells (60-70% confluent) grown in DMEM without phenol red, supplemented with 10% FBS on 6-well plates were transfected in medium without serum with lipofectamine 2000 (Invitrogen, Burlington, Ontario, Canada) with 100 ng of ERα expression vectors as indicated, 300 ng of LCoR/pSG5, 300 ng of HA-HDAC3/pCDNA3.1 or […], 250 ng of ERE3-TATA-CAT reporter plasmid, 250 ng of internal control vector pCMV-βgal, and pBluescript carrier DNA to 4 μg. Medium was replaced 18 hr after transfection by a medium containing charcoal-stripped serum and ligand (10 nM) for 30 hr, as indicated. […]

effect on interaction of CtBP1 with LCoR in vitro [1]: no effect
Molecule: NC(=O)C1=CN([C@@H]2O[C@H](COP(=O)(O)OP(=O)(O)OC[C@H]3O[C@@H](n4cnc5c(N)ncnc54)[C@H](O)[C@@H]3O)[C@@H](O)[C@H]2O)C=CC1 [NADH]

effect on BRET ratio [2]: no significant effect
induction of interaction of LCoR with ERα [3]: did not induce interaction
Molecule: 4-hydroxytamoxifen

Molecule: O=C1N[C@@H](Cc2ccccc2)C(=O)N2CCC[C@@H]2C(=O)N[C@@H](CCCCCC(=O)[C@@H]2CO2)C(=O)N[C@H]1Cc1ccccc1 [trapoxin] (cyclo(FF[dP][Aoe]))
effect on HDAC6 repression / enhancement of LCoR corepression of ERα transactivation [4]: not
